Data set [1] has as its system rats with dietary hyperlipidemia. The data set is described as follows: The antihyperlipidemic activity in rats with dietary hyperlipidemia (Test 1). The class given is in vivo, Wister type male rats. As to conditions: Rattus norvegicus, cholesterol diet, 100 mg/kg oral once daily for 4 days, 24 hours after administration. As for the experimental part: The antihyperlipidemic activity in rats with dietary hyperlipidemia.
In the tests, Wister type male rats (weight: 140 g) were used in groups of 6 each.
A feed containing 2% of cholesterol, 1% of sodium cholate and 5% of coconut oil was given for 4 days to cause hyperlipidemia.
Each active ingredient was suspended in a 1% aqueous solution of Tween 80 (® polyoxyethylene sorbitane monoalkylate) and the suspension was orally administered in a dose of 100 mg/kg once daily for 4 days starting with the supply of the cholesterol supplemented diet.
After 24 hours from the administration, blood was sampled and the concentration of total cholesterols in blood-plasma was measured by the method described in Clinical chemistry Vol. 22 page 393 (1968) and the concentration of triglyceride (neutral fat) was measured by Fletcher method (Clinica Chimica Acta) Vol. 10 page 451 (1964).
As the active ingredients, the compounds of the invention shown in Table and ethyl-α-(p-chlorophenoxy)-isobutylate having the formula [drawing 25] were used.

The nature of data set [2]: acute toxicity tests in mice (Test 2). As to conditions: mouse, in vivo; male mice, oral, in olive oil; mortality after 72 hours, area method. Here is the method:
In the acute toxicity tests, male mice (weight: 22 to 25 g) were used in groups of 10 each.
Each active ingredient was dissolved in olive oil and the solution was orally administrated in a volume corresponding to the body weight.
LD50 was calculated by the area method from the mortal percent after 72 hours from the administration.

Setting [3] is: total cholesterol in blood-plasma, read-out: Antihypertipidemic activity (%) Cholesterol.
Where [4] appears, read: triglyceride (neutral fat), Fletcher method, read-out: Antihypertipidemic activity (%) Triglyceride.

Each structure is given as a SMILES string. Like-named read-outs stand apart in the source and are kept apart here.

For the molecule `CCOC(=O)C(Oc1ccc(C(C)=O)cc1)C1CCCCC1` (stereo not drawn) [Compound 11], the inhibition in vivo at 100 mg/kg stood at 31.8% in data set [1] (setting [3]) and 30.9% in data set [1] (setting [4]). Besides, in data set [2], the LD50 at 72 h was over 3000 mg/kg.
Consider `CCOC(=O)C(Oc1c(C)cccc1C)C1CCCCC1` (stereo not drawn) [Compound 4], for which the inhibition in vivo at 100 mg/kg was 38.5% in data set [1] (setting [3]) and 0% in data set [1] (setting [4]). The LD50 at 72 h in data set [2] was over 3000 mg/kg.
`CCOC(=O)C(Oc1ccc(-c2ccc(Cl)cc2)cc1)C1CCCCC1` (stereo not drawn) [Compound 18]: the inhibition in vivo at 100 mg/kg turned out to be 43.7% in data set [1] (setting [3]) and 40.5% in data set [1] (setting [4]). Moreover, the median lethal dose (LD50) at 72 h in data set [2] is over 3000 mg/kg.
`CCOC(=O)C(Oc1ccc(OC)cc1)C1CCCCC1` (stereo not drawn) [Compound 5]: the inhibition in vivo at 100 mg/kg in data set [1] (setting [3]) worked out at 39%; in data set [1] (setting [4]), 8.9%. In addition, the LD50 at 72 h in data set [2] is over 3000 mg/kg.
The like results for `CCOC(=O)C(Oc1ccc(-c2ccccc2)cc1)C1CCCCC1` (stereo not drawn) [Compound 6, Ethyl α-(p-phenylphenoxy)α-cyclohexylacetate] were, in that order, 52.3%, 44% and over 3000 mg/kg.
The like results for `CCOC(=O)C(Oc1ccc(C2CCCCC2)cc1)C1CCCCC1` (stereo not drawn) [Compound 7, Ethyl α-(p-cyclohexylphenoxy)α-cyclohexylacetate] were, in that order, 42.6%, 51.6% and over 3000 mg/kg.
Taken in the same sequence, the figures for `CCOC(=O)C(Oc1ccc(C(C)CC)cc1)C1CCCCC1` (stereo not drawn) [Compound 8] were 36.7%, 17.1% and over 3000 mg/kg.
Turning to `CCOC(=O)C(Oc1ccc(Oc2ccccc2)cc1)C1CCCCC1` (stereo not drawn) [Compound 16, ethyl α-(p-phenoxyphenoxy)α-cyclohexylacetate], the results for the inhibition in vivo at 100 mg/kg in data set [1] (setting [3]) and in data set [1] (setting [4]) were 40.8% and 38.7%, respectively. The same molecule showed an LD50 at 72 h in data set [2] of over 3000 mg/kg.
Taken in the same sequence, the figures for `CCOC(=O)C(Oc1ccc(CC)cc1)C1CCCCC1` (stereo not drawn) [Compound 14, Ethyl α-(p-ethylphenoxy)α-cyclohexylacetate] were 42.6%, 64.8% and over 3000 mg/kg.
Turning to `CCOC(=O)C(Oc1cccc(C)c1)C1CCCCC1` (stereo not drawn) [Compound 13], the values for the inhibition in vivo at 100 mg/kg in data set [1] (setting [3]) and in data set [1] (setting [4]) were 7.9% and 59.7%, respectively. This molecule also displayed an LD50 at 72 h in data set [2] of over 3000 mg/kg.
Turning to `O=C(O)C(Oc1ccc(C2CCCCC2)cc1)C1CCCCC1` (stereo not drawn) [Compound 19, α-(p-cyclohexylphenoxy)α-cyclohexylacetic acid], the results for the inhibition in vivo at 100 mg/kg in data set [1] (setting [3]) and in data set [1] (setting [4]) were 35.8% and 32.4%, respectively. The same molecule showed an LD50 at 72 h in data set [2] of over 3000 mg/kg.
The like results for `CCOC(=O)C(Oc1cccc(C(F)(F)F)c1)C1CCCCC1` (stereo not drawn) [Compound 1] were, in that order, 12.1%, 49.3% and 2500 mg/kg.
Taken in the same sequence, the figures for `CCOC(=O)C(Oc1ccc(Oc2ccc(Cl)cc2)cc1)C1CCCCC1` (stereo not drawn) [Compound 17] were 45.3%, 46.5% and over 3000 mg/kg.
Taken in the same sequence, the figures for `CCOC(=O)C(Oc1cccnc1)C1CCCCC1` (stereo not drawn) [Compound 2] were 0%, 45% and 2500 mg/kg.
`CCOC(=O)C(Oc1ccc2c(c1)CCCC2)C1CCCCC1` (stereo not drawn) [Compound 10, Ethyl α-(5,6,7,8-tetrahydro-2-naphthoxy)-α-cyclohexylacetate]: the inhibition in vivo at 100 mg/kg in data set [1] (setting [3]) was 52.1%; in data set [1] (setting [4]), 44.4%. The LD50 at 72 h in data set [2] amounted to 2500 mg/kg.
In the case of `CCOC(=O)C(Oc1ccc(Cl)cc1)C1CCCCC1` (stereo not drawn) [Compound 3], the inhibition in vivo at 100 mg/kg in data set [1] (setting [3]) amounted to 43.3%; in data set [1] (setting [4]) it was 31.5%. In data set [2], the 50% lethal dose (LD50) at 72 h was over 3000 mg/kg.
Turning to `CCOC(=O)C(Oc1ccc(C(C)(C)c2ccccc2)cc1)C1CCCCC1` (stereo not drawn) [Compound 9], the figures for the inhibition in vivo at 100 mg/kg in data set [1] (setting [3]) and in data set [1] (setting [4]) were 40.3% and 28.1%, respectively. Besides, the median lethal dose (LD50) at 72 h in data set [2] is over 3000 mg/kg.
Consider `CCOC(=O)C(Oc1ccc(Cl)c2ccccc12)C1CCCCC1` (stereo not drawn) [Compound 15], for which the values for the inhibition in vivo at 100 mg/kg in data set [1] (setting [3]) and in data set [1] (setting [4]) were 0% and 53%, respectively. Further, the LD50 at 72 h in data set [2] amounted to 2500 mg/kg.
Taken in the same sequence, the figures for `CCOC(=O)C(Oc1cccc(C(C)=O)c1)C1CCCCC1` (stereo not drawn) [Compound 12] were 14.3%, 11.5% and over 3000 mg/kg.

A word on the LD50: it is the dose at which mortality reaches 50%. Higher therefore signals a less toxic substance.

For the origin of these results see patent publication US4278678A, “Substituted oxy-cyclohexylacetic acid derivatives” (Kaken Chemical Co., Ltd., priority 1978, dated 1981).
